From patent US8796293B2, “Purine and deazapurine derivatives as pharmaceutical compounds” (Astex Therapeutics Limited, priority 2006, dated 2014)
Like-named read-outs stand apart in the source and are kept apart here.

Legend:
[1] = target: ROCK-II (h) (Homo sapiens (Human), UniProt O75116); assay: ROCK-II (h) assay, radiometric filter assay; type: biochemical; conditions: read-out: IC50 (anti-ROCK-II activity)
Protocol: (specific activity approx. 500 cpm/pmol, concentration as required). The reaction is initiated by the addition of the MgATP mix. After incubation for 40 minutes at room temperature, the reaction is stopped by the addition of 5 μl of a 3% phosphoric acid solution. 10 μl of the reaction is then spotted onto a P30 filtermat and washed three times for 5 minutes in 75 mM phosphoric acid and once in methanol prior to drying and scintillation counting.
The compound of various examples described above were tested for anti-ROCK-II activity (assay as described above): […]

[2] = target: P70S6 kinase (T412E) (Homo sapiens (Human), UniProt P23443, T412E); assay: P70S6 radiometric assay; type: biochemical
P70S6 kinase (T412E), sequence (P23443 whole entry T412E): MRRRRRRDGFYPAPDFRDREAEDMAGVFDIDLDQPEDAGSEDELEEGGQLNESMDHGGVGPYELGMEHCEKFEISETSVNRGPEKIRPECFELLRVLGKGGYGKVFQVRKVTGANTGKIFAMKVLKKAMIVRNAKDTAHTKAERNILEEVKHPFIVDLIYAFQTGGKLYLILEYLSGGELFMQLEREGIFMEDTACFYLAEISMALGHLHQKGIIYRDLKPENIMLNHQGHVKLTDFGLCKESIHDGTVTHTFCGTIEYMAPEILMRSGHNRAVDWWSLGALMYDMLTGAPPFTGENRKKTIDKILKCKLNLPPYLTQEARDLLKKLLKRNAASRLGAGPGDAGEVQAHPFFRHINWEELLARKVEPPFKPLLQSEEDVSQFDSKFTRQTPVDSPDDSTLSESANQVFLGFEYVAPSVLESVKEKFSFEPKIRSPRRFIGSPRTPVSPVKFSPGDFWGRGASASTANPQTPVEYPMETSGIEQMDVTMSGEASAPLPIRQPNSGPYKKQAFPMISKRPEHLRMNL
Protocol: P70S6 enzyme is bought from Upstate and used at 2 nM in the assay. […] In the phosphoryl transfer reaction, the ^33P-γ phosphate from ATP is transferred to the serine residue. The reaction mixture is transferred to a phosphocellulose filter plate where the peptide binds and the unused ATP is washed away. After washing, scintillant is added and the incorporated activity measured by scintillation counting.
ATP (10 mM stock) added fresh from concentrated stocks.
Compounds—prepare a dilution curve in DMSO in a polypropylene 96 well plate to 40× final assay concentration (final DMSO 2.5%).
In a polypropylene 96 well plate add in order: • 5 μl compound • 10 μl substrate mix • 10 μl enzyme mix
Controls are “no compound” (DMSO only) and “no enzyme” (use 10 μl of the enzyme mix prior to adding enzyme). Cover with a plate seal (TopSeal A—Packard) or plastic lid from filter plate (moderate radiation barrier). Mix by gentle shaking. Incubate at room temperature for 50 minutes. Stop the reaction by adding 20 μl of 2% orthophosphoric acid.
Pre-wet the wells of a Millipore MAPH NOB plate with 50 μl of 0.5% orthophosphoric acid wash buffer. Filter the liquid through on a Millipore vacuum filtration unit. Transfer the whole of the stopped reaction to the wells. Filter through. Wash twice with 200 μl of 0.5% orthophosphoric acid wash buffer. Vacuum to near dryness. Remove the plate support and allow to the filters to dry further on tissue paper. Snap the plate into an adapter for the Packard TopCount. Add 20 μl of Microscint 20 scintillant, seal with a sheet of Topseal A and count for 30s on the TopCount.

[3] = tested on: blood pressure; conditions: cited from earlier work
[4] = rat, in vivo, po, 30 mg/kg; cited from earlier work
[5] = enzyme 2 nM, ATP approximately 15 μM, 50 minutes at room temperature, read-out: IC50 (anti-P70S6K activity)
[6] = [γ-33P-ATP], 40 minutes at room temperature

ROCK-II (h), sequence (O75116 whole entry): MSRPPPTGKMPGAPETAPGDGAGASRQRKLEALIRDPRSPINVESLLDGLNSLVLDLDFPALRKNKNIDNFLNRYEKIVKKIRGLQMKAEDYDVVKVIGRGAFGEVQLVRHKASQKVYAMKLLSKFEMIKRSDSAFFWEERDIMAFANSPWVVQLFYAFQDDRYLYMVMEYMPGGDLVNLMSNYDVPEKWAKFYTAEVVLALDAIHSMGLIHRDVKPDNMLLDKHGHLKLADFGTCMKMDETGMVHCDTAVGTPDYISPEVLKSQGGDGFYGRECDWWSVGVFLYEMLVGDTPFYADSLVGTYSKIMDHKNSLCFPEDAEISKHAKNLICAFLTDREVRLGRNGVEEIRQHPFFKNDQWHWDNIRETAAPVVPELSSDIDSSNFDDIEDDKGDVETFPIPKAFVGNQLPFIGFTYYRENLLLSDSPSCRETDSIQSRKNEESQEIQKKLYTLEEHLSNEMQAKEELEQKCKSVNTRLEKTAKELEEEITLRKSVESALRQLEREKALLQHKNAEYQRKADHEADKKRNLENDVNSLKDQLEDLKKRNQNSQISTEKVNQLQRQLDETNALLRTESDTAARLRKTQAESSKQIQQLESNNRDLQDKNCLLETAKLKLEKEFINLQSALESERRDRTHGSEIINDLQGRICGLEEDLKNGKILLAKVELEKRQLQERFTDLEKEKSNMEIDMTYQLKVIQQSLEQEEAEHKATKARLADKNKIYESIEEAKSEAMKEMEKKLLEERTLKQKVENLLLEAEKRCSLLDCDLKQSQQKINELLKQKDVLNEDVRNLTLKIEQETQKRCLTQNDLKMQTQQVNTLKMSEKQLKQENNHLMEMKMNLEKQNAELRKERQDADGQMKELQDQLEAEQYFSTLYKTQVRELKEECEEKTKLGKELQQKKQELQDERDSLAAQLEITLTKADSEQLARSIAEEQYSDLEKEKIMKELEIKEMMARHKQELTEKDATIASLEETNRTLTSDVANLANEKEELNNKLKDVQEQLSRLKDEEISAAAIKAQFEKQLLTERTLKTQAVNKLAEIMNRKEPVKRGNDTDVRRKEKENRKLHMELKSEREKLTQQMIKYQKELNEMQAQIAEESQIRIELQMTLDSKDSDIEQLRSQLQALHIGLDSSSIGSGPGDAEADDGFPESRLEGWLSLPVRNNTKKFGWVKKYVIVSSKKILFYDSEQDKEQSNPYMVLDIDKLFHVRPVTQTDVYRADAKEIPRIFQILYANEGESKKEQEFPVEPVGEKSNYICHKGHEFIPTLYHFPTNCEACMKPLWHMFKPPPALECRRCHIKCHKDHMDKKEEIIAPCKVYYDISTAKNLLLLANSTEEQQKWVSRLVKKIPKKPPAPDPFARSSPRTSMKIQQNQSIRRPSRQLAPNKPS

IC50 [2, 5] [nM]	IC50 [1, 6] [nM]	Structure (SMILES)	further results
94	< 1000	NC1(Cc2ccc(Cl)cc2)CCN(c2ncnc3[nH]ccc23)CC1 [Example 17, 4-(4-Chlorobenzyl)-1-(7H-pyrrolo[2,3-d]pyrimidin-4-yl)piperidin-4-ylamine]	–
7	–	NCC1(c2ccc(OC(F)(F)F)cc2)CCN(c2ncnc3[nH]ccc23)CC1 [Example 30]	–
30	< 10	NC1(Cc2ccc(Cl)cc2)CCN(c2ccnc3[nH]ccc23)CC1 [Example 54, 4-(4-Chlorobenzyl)-1-(1H-pyrrolo[2,3-b]pyridin-4-yl)-piperidin-4-ylamine]	–
–	> 1000	NC1(Cc2ccccc2Cl)CCN(c2ncnc3[nH]ccc23)CC1 [Example 55, 4-(2-Chlorobenzyl)-1-(7H-pyrrolo[2,3-d]pyrimidin-4-yl)piperidin-4-ylamine]	–

More lines, now with the values behind:

Structure (SMILES)	IC50 [2, 5] [nM]	IC50 [1, 6] [nM]	further results
NC1CCN(c2ncnc3[nH]c(=O)[nH]c23)CC1 [Example 4, 6-(4-Aminopiperidin-1-yl)-7,9-dihydropurin-8-one]	3000	–	IC50 [1]: > 1000 nM
NC1(c2ccc(Cl)cc2)CCN(c2ncnc3[nH]ccc23)CC1 [Example 25, 4-(4-Chlorophenyl)-1-(7H-pyrrolo[2,3-d]pyrimidin-4-yl)piperidin-4-ylamine]	–	–	IC50 [2]: 13 nM
NC1(Cc2ccc(Cl)cc2Cl)CCN(c2ncnc3[nH]ccc23)CC1 [Example 59, 4-(2,4-Dichlorobenzyl)-1-(7H-pyrrolo[2,3-d]pyrimidin-4-yl)piperidin-4-ylamine]	59	–	IC50 [1]: < 30 nM
C[C@@H](N)[C@H]1CC[C@H](C(=O)Nc2ccncc2)CC1 [Example Y-27632]	–	–	effect on blood pressure ([3]; hypertensive rats): reduces blood pressure; effect on blood pressure ([3]; normal rats): does not affect blood pressure; toxicity in rats [4]: not toxic
